Laboratory results: US20070191452A1, “USE OF BENZO-HETEROARYL SULFAMIDE DERIVATIVES FOR THE TREATMENT OF PAIN” (priority 2006, published 2007)

Assays:
Format in all cases: in vivo
[1] = test system: Taxol induced mechanical allodynia in the rat hind paw; test: Taxol-Induced Peripheral Neuropathy (von Frey paw withdrawal threshold); settings: 100 mg/kg, p.o. daily for 12 days with Taxol 2 mg/kg i.p.; day 12; not statistically different from baseline (16.42±2.14 g)
Description: Peripheral neuropatheis are chronic conditions that arise when nerves are damaged by trauma, disease, metabolic insufficiency or by certain drugs and toxins. The sensory disturbances associated with chemotherapeutic agents, such as paclitaxel (Taxol), range from mild tingling to spontaneous burning, typically in the hands and feet. Symptoms become more intense with continued therapy and can lead to weakness, ataxia, numbness and pain. Taxol-induced peripheral neuropathy in rats have therefore been used as a model of peripheral neuropathies in humans.
Male Sprague-Dawley rats (Harlan) were randomly assigned to two treatment groups: vehicle (0.5% hypromellose, p.o.) and Compound #1 (100 mg/kg, p.o). All rats were injected with Taxol (2 mg/kg, i.p.) on days 1, 3, 5 and 7. At the same time, rats received daily oral gavage of vehicle or Compound #1, starting the day of the first Taxol injection and continuing for 12 days.
All animals were acclimated to the allodynia procedure 2-3 days prior to testing allowing the rats to habituate to the testing devices. Rats underwent Von Frey hair testing as a measure of mechanical allodynia at baseline and on days 5 and 12 post-Taxol injection. Tactile sensitivity was measured using calibrated filaments touched to the plantar surfaces of the affected limb. […]

[2] = test system: mechanical (tactile) allodynia after L5 nerve ligation; test: Rat Chung Model of Neuropathic Pain (L5 nerve ligation, von Frey mechanical allodynia)
Method: The rat Chung model is an assay used in determining whether a compound is useful for the treatment of neuropathic pain (Kim and Chung, 1994; Chaplan et al., 1994).
In this study, male Sprague Dawley rats (145-165 g; Harlan) were anesthetized and the L5 nerve was isolated and ligated with silk suture material resulting in mechanical allodynia. Two weeks post-ligation, rats were dosed acutely with vehicle (an aqueous solution of 0.5% methylcellulose) or Compound #1 at 15, 30, 60, 120 or 240 mg/kg, p.o. Mechanical (tactile) allodynia was quantified by recording the pressure at which the affected paw withdrew from a graded stimulus (von Frey hairs) at 30 min, 1, 2 and 4 h post-dosing. Data were normalized and results are presented as % MPE (maximum […] effect) of the drug.

[3] = test system: formalin-induced inflammatory-mediated pain response (hind-paw licking); test: Mouse Formalin Assay; settings: i.p.; for acute response, decrease from control: acute phase
Method: The mouse formalin test is an acute and chronic model for testing the ability of a test compound for the treatment of pain.
In the Mouse Formalin Test, 0.5% formalin was injected s.c. into the plantar region of the hind-paw of adult male mice to induce an inflammatory-mediated pain response. Pain was expressed as licking of the injected area in a bi-modal manner—acute and chronic phase. The acute phase occurred immediately and lasted approximately 10-15 min post-injection, representing direct stimulation of pain fibers. Licking behavior resumes approximately 10 mins later (˜20 min post injection) and lasted 10-15 min, representing the chronic phase due to centralized sensitization in dorsal horn neurons and hypothesized to be caused by the release of inflammatory mediators such as cytokines.
Activity in the acute phase of the formalin test is an indicator of acute pain believed to correlate with peripheral pain pathways.

[4] = 107 mg/kg, 15 min prior to formalin injection, p<0.01

## NS(=O)(=O)NCc1csc2ccccc12 [Compound #1, N-(benzo[b]thien-3-ylmethyl)-sulfamide]
[1]
  withdrawal force: 14.32 ± 5.45 g
[2]; 240 mg/kg, p.o., at 1 h post-dosing
  improvement in the allodynic response (% MPE): 80%
[2]; Rattus norvegicus, po, at 1 h post-dosing, n=5 rats/dose, read-out: acute oral ED50
  ED50: 169 mg/kg
[2]; p.o., efficacy observed at 30 min, gone by 4 h
  time of peak efficacy post-dosing: 1 h
[3]; 53 mg/kg, p<0.05
  acute response, decrease from control: 32%
[3]; 53 mg/kg, p<0.01
  chronic phase response, decrease from control: 67%
[3]; [4]
  acute response, decrease from control: 52%
  chronic phase response, decrease from control: 88%
